Paper PMC5382548 (Scientific Reports, 2015)

What was measured:
[1] = tested on: KRAS21R (FRET-labelled) (DNA, G4) AGGGCGGTGTGGGAAGAGGGA; experiment: FRET melting; settings: 60 mM K+; K-cacodylate pH 7.4; 0.2 μM DNA, 1 μM compound; SD ≤ 0.2
[2] = tested on: KRAS32R G4; experiment: FRET melting assay, KRAS32R G4; assay type: binding, human; settings: G4 0.2 μM, ligand 1 μM
Protocol: (§1) Two compounds 2d and 3e were selected and evaluated for their ability to stabilize the 32-mer sequence in the NHE of the human KRAS promoter (KRAS32R)[12], two G4 motifs in the 5′UTR of KRAS mRNA (UTR-1 and UTR-2)[24] and a 21-mer DNA G4 from the human telomeric sequence (F21T). The KRAS32R sequence has been described as forming two G4 structures which exist in equilibrium. One sequence folds into a G4 (Q1) with a Tm of ~55°C that is disrupted on increasing the temperature and then, the full-length 32-mer sequence folds into a new G4 (Q2, Tm of ~72°C)[13]. In our assay, the KRAS32R sequence (in the presence or absence of IQcs) folded in a single G4 structure (Tm ≈ 54°C), as shown by the single inflection for the first derivative of the FRET melting data (Sup. Inf.; Figure S4). This monophasic behaviour was also observed in the presence of TMPyP4[13].
(§2) Oligonucleotide sequences were purchased from Eurofins MWG Synthesis GmbH, Germany or STAB VIDA Genomics Lab, Caparica, Lisbon, Portugal. […]
(§3) The ability of indolo[3,2-c]quinolines to stabilize DNA sequences was investigated using a Fluorescence Resonance Energy Transfer (FRET) assay as reported elsewhere.

[3] = tested on: UTR-1 G4 in the 5′UTR of KRAS mRNA; experiment: FRET melting assay, UTR-1 RNA G4; assay type: binding; settings: G4 0.2 μM, ligand 1 μM
Protocol: as §1, §2, §3

[4] = tested on: UTR-2 G4 in the 5′UTR of KRAS mRNA; experiment: FRET melting assay, UTR-2 RNA G4; assay type: binding; settings: G4 0.2 μM, ligand 1 μM
Protocol: as §1, §2, §3

[5] = tested on: UTR-1 (RNA, G4) GCGGCGGCGGAGG; experiment: FRET melting; settings: 60 mM K+; K-cacodylate pH 7.4; 0.2 μM RNA, 1 μM compound; SD ≤ 0.2
[6] = tested on: UTR-2 (RNA, G4) UGUGGGAGGGGCGGGUCUGGG; experiment: FRET melting; settings: 60 mM K+; K-cacodylate pH 7.4; 0.2 μM RNA, 1 μM compound; SD ≤ 0.2
[7] = tested on: 26ds (ds26) (DNA, duplex) CAATCGGATCGAATTCGATCCGATTG; experiment: spectrofluorimetric titration, one-site Hill slope fit; settings: 60 mM K+, K-cacodylate pH 7.4, 25 °C, 1 μM compound, apparent, SD ≤ 0.2 × 10^6

Cn1cc2c3ccccc3nc-2c2cc(Br)ccc21 [2a, 2-bromo-5-methyl-indolo[3,2-c]quinoline]
binding [1]: weak

CCN(CC)CCCNc1ccc2c(c1)c1[nH]c3ccccc3c1c[n+]2C [2d]
ΔTm KRAS32R [2]: 10.7 °C | ΔTm UTR-1 [3]: 5.1 °C | ΔTm UTR-2 [4]: 2.0 °C | ΔTm [5]: 5.1 °C | ΔTm [6]: 2.0 °C | Ka ([7]; Hill 1.5): 2.8e+06 M⁻¹

CCN(CC)CCCNc1ccc2c(c1)[nH]c1c2c[n+](C)c2ccc(NCCCN(CC)CC)cc12.[Cl-] [3e]
ΔTm KRAS32R [2]: 17.0 °C | ΔTm UTR-1 [3]: 15.7 °C | ΔTm UTR-2 [4]: 9.9 °C | ΔTm [5]: 15.7 °C | ΔTm [6]: 9.9 °C | binding [1]: yes | Ka ([7]; Hill 2.5): 3.2e+06 M⁻¹
